Test results as given in patent US10980814B2, “Fused pentacyclic imidazole derivatives as modulators of TNF activity” (UCB Biopharma SRL, priority 2017, dated 2021).

What follows are compounds tested against T1, human hERG channels (Kv11.1) (Homo sapiens, UniProt Q12809) (assay: hERG assay, automated planar patch-clamp in CHO cells stably expressing human hERG channels). Conditions: peak tail-current, QPatch HTX whole-cell voltage-clamp, room temperature, 0.12-30 μM.
T1 construct: host or cells: CHO cells (hERG-Duo cells)
Assay type: cell-based
Description: Pharmacological activity of the compounds at cardiac hERG channels (Kv11.1) was assessed functionally using an automated planar patch-clamp electrophysiology station. CHO cells stably expressing human hERG channels were grown under the permanent pressure of the appropriate selection antibiotics according to the specifications of the manufacturer (hERG-Duo cells, B'SYS GmbH, Switzerland). Cells were harvested below 80% confluence, suspended in serum-free medium and dispensed automatically to multi-well recording plates for whole-cell voltage-clamp recordings on a QPatch HTX workstation (Sophion, BiolinScientific AB, Denmark). The composition of the extracellular recording buffer was (in mM): NaCl, 150; KCl, 4; CaCl2), 2; MgCl2, 1; HEPES, 10; and glucose, 10; adjusted to pH 7.4 with NaOH. The intracellular buffer contained (in mM): KCl, 120; CaCl2), 5; MgCl2, 2; EGTA, 10; HEPES, 10; and Mg-ATP, 4; adjusted to pH 7.2 with KOH. The voltage protocol used to activate hERG currents consisted in a first depolarizing step from a −80 mV holding potential to +20 mV for 5 s followed by a second repolarizing step to −50 mV. Cycle time was 15 s, recordings were performed at room temperature and drug effects were evaluated on the peak tail-current elicited by the second repolarizing step. For pharmacology, stock solutions of the test articles at 10 mM were prepared in DMSO. A 6-point concentration-range was prepared in polypropylene micro-titer plates by first serially diluting the initial 10 mM stock 1:3 in DMSO and then diluting each of the 6 intermediate working solutions 1:333 in extracellular recording medium containing 0.06% Pluronic F-68 (Gibco/Thermofischer, France). Final concentrations of test articles (i.e. 0.12 μM, 0.37 μM, 1.1 μM, 3.3 μM, 10 μM and 30 μM) were applied cumulatively to the cells in ascending order. A positive control (terfenadine, 10 μM) was added at the end of each recording sequence. Time-course of hERG tail current amplitude was analyzed off-line following optional leak current substraction and compensation of current rundown as needed. Half-maximal inhibitory concentrations (IC50) were obtained by fitting current amplitudes measured at the end of each exposure period and normalized with respect to pre-drug baseline with a four parameter sigmoidal equation.

T1 sequence (Q12809 whole entry): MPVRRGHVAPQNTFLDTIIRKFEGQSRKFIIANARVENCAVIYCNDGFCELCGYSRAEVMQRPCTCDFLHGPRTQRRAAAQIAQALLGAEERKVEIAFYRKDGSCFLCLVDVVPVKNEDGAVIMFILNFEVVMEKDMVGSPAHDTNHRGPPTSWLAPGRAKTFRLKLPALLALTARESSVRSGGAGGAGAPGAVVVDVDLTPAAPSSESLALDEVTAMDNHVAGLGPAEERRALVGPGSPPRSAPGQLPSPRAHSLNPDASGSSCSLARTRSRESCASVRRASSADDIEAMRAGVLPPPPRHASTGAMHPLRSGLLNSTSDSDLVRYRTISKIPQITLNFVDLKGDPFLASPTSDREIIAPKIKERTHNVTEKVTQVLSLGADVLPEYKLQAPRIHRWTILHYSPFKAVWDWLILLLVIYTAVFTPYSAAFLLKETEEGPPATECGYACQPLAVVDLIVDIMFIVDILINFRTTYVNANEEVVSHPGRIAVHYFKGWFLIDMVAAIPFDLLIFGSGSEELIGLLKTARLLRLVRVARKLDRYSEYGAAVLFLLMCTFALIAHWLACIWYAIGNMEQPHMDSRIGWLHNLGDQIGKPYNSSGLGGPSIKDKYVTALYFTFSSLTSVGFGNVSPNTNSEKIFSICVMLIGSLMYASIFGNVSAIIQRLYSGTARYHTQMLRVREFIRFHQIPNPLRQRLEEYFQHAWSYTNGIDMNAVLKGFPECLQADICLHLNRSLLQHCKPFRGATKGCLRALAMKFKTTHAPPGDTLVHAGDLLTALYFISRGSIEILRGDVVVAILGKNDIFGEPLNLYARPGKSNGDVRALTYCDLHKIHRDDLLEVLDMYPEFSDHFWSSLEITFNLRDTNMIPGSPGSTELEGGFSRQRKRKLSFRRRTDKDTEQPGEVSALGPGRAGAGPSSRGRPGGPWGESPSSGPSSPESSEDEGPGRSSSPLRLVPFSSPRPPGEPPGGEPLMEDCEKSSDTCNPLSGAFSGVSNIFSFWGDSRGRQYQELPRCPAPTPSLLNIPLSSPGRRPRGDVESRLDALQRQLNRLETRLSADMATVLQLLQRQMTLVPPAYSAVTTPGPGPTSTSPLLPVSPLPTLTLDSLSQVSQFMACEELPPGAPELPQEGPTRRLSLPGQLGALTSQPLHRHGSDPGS

`C[C@]1(CO)C[C@](N)(c2ncc(-c3ccc4nc5n(c4c3)[C@@H]3C[C@H]5NC(=O)c4cccc(OC(F)F)c43)cc2F)C1` [Example 10, (7R,14R)-11-{6-[cis-1-Amino-3-(hydroxymethyl)-3-methylcyclobutyl]-5-fluoropyridin-3-yl}-1-(difluoromethoxy)-6,7-dihydro-7,14-methanobenzimidazo[1,2-b][2,5]-benzodiazocin-5(14H)-one] and `[2H]C([2H])(O)[C@]1(C)C[C@@](N)(c2ncc(-c3ccc4nc5n(c4c3)[C@@H]3C[C@H]5NC(=O)c4cccc(OC(F)F)c43)cc2F)C1` [Example 16, (7R,14R)-11-(6-{cis-1-Amino-3-[hydroxy(dideutero)methyl]-3-methylcyclobutyl}-5-fluoropyridin-3-yl)-1-(difluoromethoxy)-6,7-dihydro-7,14-methanobenzimidazo[1,2-b]-[2,5]benzodiazocin-5(14H)-one] cannot be ordered by IC50: over 30 µM for the first, over 30 µM for the second.

`CN1C(=O)c2cccc(OC(F)F)c2[C@H]2C[C@@H]1c1nc3ccc(-c4cnc([C@]5(N)C[C@](O)(C(F)(F)F)C5)nc4)cc3n12` (single isomer, unassigned) [Example 12] and `CN1C(=O)c2cccc(OC(F)F)c2[C@H]2C[C@@H]1c1nc3ccc(-c4cnc([C@]5(N)C[C@](O)(C(F)(F)F)C5)c(F)c4)cc3n12` (single isomer, unassigned) [Example 11] cannot be ordered by IC50: over 30 µM for the first, over 30 µM for the second.

`C[C@]1(C#N)C[C@](N)(c2ncc(-c3ccc4nc5n(c4c3)[C@@H]3C[C@H]5NC(=O)c4cccc(OC(F)F)c43)cn2)C1` [Example 2, cis-3-Amino-3-{5-[(7R,14R)-1-(difluoromethoxy)-5-oxo-5,6,7,14-tetrahydro-7,14-methanobenzimidazo[1,2-b][2,5]benzodiazocin-11-yl]pyrimidin-2-yl}-1-methyl-cyclobutanecarbonitrile] and `C[C@]1(CO)C[C@](N)(c2ncc(-c3ccc4nc5n(c4c3)[C@@H]3C[C@H]5NC(=O)c4cccc(OC(F)F)c43)cn2)C1` [Example 15, (7R,14R)-11-{2-[cis-1-Amino-3-(hydroxymethyl)-3-methylcyclobutyl]pyrimidin-5-yl}-1-(difluoromethoxy)-6,7-dihydro-7,14-methanobenzimidazo[1,2-b][2,5]benzodiazocin-5(14H)-one] cannot be ordered by IC50: over 30 µM for the first, over 30 µM for the second.

Compared with `CN1C(=O)c2cccc(OC(F)F)c2[C@H]2C[C@@H]1c1nc3ccc(-c4cnc(C5(N)CCC5)nc4)cc3n12` [Example 6, (7R,14R)-11-[2-(1-Aminocyclobutyl)pyrimidin-5-yl]-1-(difluoromethoxy)-6-methyl-6,7-dihydro-7,14-methanobenzimidazo[1,2-b][2,5]benzodiazocin-5(14H)-one], `[2H]C([2H])(O)[C@]1(C)C[C@@](N)(c2ncc(-c3ccc4nc5n(c4c3)[C@@H]3C[C@H]5NC(=O)c4cccc(OC(F)F)c43)cn2)C1` [Example 14, (7R,14R)-11-(2-{cis-1-Amino-3-[hydroxy(dideutero)methyl]-3-methylcyclobutyl}-pyrimidin-5-yl)-1-(difluoromethoxy)-6,7-dihydro-7,14-methanobenzimidazo[1,2-b][2,5]-benzodiazocin-5(14H)-one] is higher in IC50: about 8 µM for the first, over 30 µM for the second. The first is the more potent here.

`C[C@@H]1CC[C@@]1(N)c1ncc(-c2ccc3nc4n(c3c2)[C@@H]2C[C@H]4NC(=O)c3cccc(OC(F)F)c32)cc1F` (single isomer, unassigned) [Example 5, (7R,14R)-11-{6-[(1 S,2R)-1-Amino-2-methylcyclobutyl]-5-fluoropyridin-3-yl}-1-(difluoromethoxy)-6,7-dihydro-7,14-methanobenzimidazo[1,2-b][2,5]benzodiazocin-5(14M-one or (7R,14R)-11-{6-[(1R,2S)-1-Amino-2-methylcyclobutyl]-5-fluoropyridin-3-yl}-1-(difluoromethoxy)-6,7-dihydro-7,14-methanobenzimidazo[1,2-b][2,5]-benzodiazocin-5(14H)-one] and `C[C@]1(O)C[C@](N)(c2ncc(-c3ccc4nc5n(c4c3)[C@@H]3C[C@H]5NC(=O)c4cccc(OC(F)F)c43)cc2F)C1` [Example 8, (7R,14R)-11-[6-(cis-1-Amino-3-hydroxy-3-methylcyclobutyl)-5-fluoropyridin-3-yl]-1-(difluoromethoxy)-6,7-dihydro-7,14-methanobenzimidazo[1,2-b][2,5]benzodiazocin-5(14H)-one] cannot be ordered by IC50: over 30 µM for the first, over 30 µM for the second.

`C[C@]1(C#N)C[C@](N)(c2ncc(-c3ccc4nc5n(c4c3)[C@@H]3C[C@H]5NC(=O)c4cccc(OC(F)F)c43)cc2F)C1` [Example 4, cis-3-Amino-3-{5-[(7R,14R)-1-(difluoromethoxy)-5-oxo-5,6,7,14-tetrahydro-7,14-methanobenzimidazo[1,2-b][2,5]benzodiazocin-11-yl]-3-fluoropyridin-2-yl}-1-methyl-cyclobutanecarbonitrile] and `N[C@]1(c2ncc(-c3ccc4nc5n(c4c3)[C@@H]3C[C@H]5NC(=O)c4cccc(OC(F)F)c43)cc2F)C[C@@](O)(C(F)(F)F)C1` [Example 13, (7R,14R)-11-{6-[cis-1-Amino-3-hydroxy-3-(trifluoromethyl)cyclobutyl]-5-fluoropyridin-3-yl}-1-(difluoromethoxy)-6,7-dihydro-7,14-methanobenzimidazo[1,2-b][2,5]-benzodiazocin-5(14H)-one] cannot be ordered by IC50: over 30 µM for the first, over 30 µM for the second.
